Test results taken from patent US7897582B2, “Oligonucleotide compositions and methods for the modulation of the expression of B7 protein” (Isis Pharmaceuticals, Inc., priority 2003, dated 2011).
Strand notation (5' to 3'): a small letter for the sugar, then the base; units joined by * are phosphorothioate-linked, units joined directly phosphodiester-linked; [ ] holds rarer units or linkages, { } end groups; capitals alone tell only the bases. e = 2'-O-(2-methoxyethyl) (MOE); [5mC] = 5-methylcytosine; d = 2'-deoxy (DNA)

Tested on: hB7-2 mRNA
Assay: Ribonuclease protection assay of hB7-2 mRNA in transfected COS-7 cells
Assay type: cell-based, human
Description: For ribonuclease protection assays, cells were harvested 18 hours after completion of oligonucleotide treatment using a Totally RNA™ kit (Ambion, Austin, Tex.). The probes for the assay were generated from plasmids pcB7-2 (linearized by digestion with Bgl II) and pTRI-b-actin (Ambion Inc., Austin, Tex.). In vitro transcription of the linearized plasmid from the SP6 promoter was performed in the presence of α-^32P-UTP (800 Ci/mmole) yielding an antisense RNA complementary to the 3′ end of B7-2 (position 1044-1391). The probe was gel-purified after treatment with DNase I to remove DNA template. Ribonuclease protection assays were carried out using an RPA II™ kit (Ambion) according to the manufacturer's directions. Total RNA (5 μg) was hybridized overnight, at 42° C., with 10^5 cpm of the B7-2 probe or a control beta-actin probe. The hybridization reaction was then treated, at 37° C. for 30 minutes, with 0.4 units of RNase A and 2 units of RNase T1. Protected RNA was precipitated, resuspended in 10 μL of gel loading buffer and electrophoresed on a 6% acrylamide gel with 50% w/v urea at 20 W. The gel was then exposed and the lanes quantitated using a PhosphorImager (Molecular Dynamics, Sunnyvale, Calif.) essentially according to the manufacturer's instructions.
The oligonucleotides were screened as described in Example 4 except that the concentration of oligonucleotide was varied as shown in Table 13. Mismatch control oligonucleotides were included.

[1] = COS-7 cells, B7-2 mRNA, oligonucleotide dose 10 nM, basal = 100%
[2] = COS-7 cells, B7-2 mRNA, oligonucleotide dose 30 nM, basal = 100%
[3] = COS-7 cells, B7-2 mRNA, oligonucleotide dose 100 nM, basal = 100%
[4] = COS-7 cells, B7-2 mRNA, oligonucleotide dose 300 nM, basal = 100%

Row | Substance | % mRNA EXPRESSION (human B7-2 mRNA, Table 12) | other results
1 | 22301 (eA*eA*eG*eA*eT*dA*dA*dA*dA*dG*d[5mC]*d[5mC]*dG*d[5mC]*dG*eT*e[5mC]*eT*eT*eG; antisense) [compound 22301] | 51% | 
2 | 22292 (e[5mC]*eT*eG*eT*e[5mC]*dA*dA*dA*dT*dT*dT*d[5mC]*dT*d[5mC]*dT*eT*eT*eG*e[5mC]*e[5mC]; antisense) [compound 22292] | 39% | 
3 | 24738 (antisense eT*eG*e[5mC]*e[5mC]*eA*dG*d[5mC]*dA*d[5mC]*d[5mC]*d[5mC]*dG*dG*dT*dA*e[5mC]*eG*eT*e[5mC]*e[5mC]) [compound 24738] |  | % mRNA INHIBITION (COS-7 cells, B7-2 mRNA, oligonucleotide dose 10 nM): 19%; % mRNA EXPRESSION [1]: 81%; % mRNA INHIBITION (COS-7 cells, B7-2 mRNA, oligonucleotide dose 30 nM): 8%; % mRNA EXPRESSION [2]: 92%; % mRNA EXPRESSION [3]: 101%; % mRNA EXPRESSION [4]: 124%
4 | 22289 (eT*eG*eG*e[5mC]*eA*dT*dG*dG*d[5mC]*dA*dG*dG*dT*d[5mC]*dT*eG*e[5mC]*eA*eG*eT; antisense) [compound 22289] | 41% | 
5 | 22291 (eT*eG*e[5mC]*e[5mC]*eT*dA*dA*dG*dT*dA*dT*dA*d[5mC]*d[5mC]*dT*e[5mC]*eA*eT*eT*e[5mC]; antisense) [compound 22291] | 41% | 
6 | 22308 (eG*eG*eA*eG*eT*d[5mC]*d[5mC]*dT*dG*dG*dA*dG*d[5mC]*d[5mC]*d[5mC]*e[5mC]*e[5mC]*eT*eT*eA; antisense) [compound 22308] | 40% | 
7 | 22302 (eA*eG*eA*eA*eA*dA*d[5mC]*d[5mC]*dA*dT*d[5mC]*dA*d[5mC]*dA*d[5mC]*eA*eT*eA*eT*eA; antisense) [compound 22302] | 41% | 
8 | 22288 (eT*e[5mC]*eA*eG*eA*dG*dG*dA*dG*d[5mC]*dA*dG*d[5mC]*dA*d[5mC]*e[5mC]*eA*eG*eA*eG; antisense) [compound 22288] | 38% | 
9 | 22307 (eG*eA*eA*eA*eT*d[5mC]*dA*dA*dA*dA*dA*dG*dG*dT*dT*eG*e[5mC]*e[5mC]*e[5mC]*eA; antisense) [compound 22307] | 45% | 
10 | 24736 (antisense eG*e[5mC]*eT*e[5mC]*e[5mC]*dA*dA*dG*dT*dG*dT*d[5mC]*d[5mC]*d[5mC]*dA*eA*eT*eG*eA*eA) [compound 24736] |  | % mRNA EXPRESSION [1]: 102%; % mRNA EXPRESSION [2]: 101%; % mRNA EXPRESSION [3]: 100%; % mRNA EXPRESSION [4]: 107%
11 | 22312 (e[5mC]*e[5mC]*eT*eA*eA*dA*dT*dT*dT*dT*dA*dT*dT*dT*d[5mC]*e[5mC]*eA*eG*eG*eT; antisense) [compound 22312] | 83% | % mRNA INHIBITION (human B7-2 mRNA, Table 12): 17%
12 | 22296 (eA*eA*eG*e[5mC]*e[5mC]*d[5mC]*dT*dT*dG*dT*d[5mC]*d[5mC]*dT*dT*dG*eA*eT*e[5mC]*eT*eG; antisense) [compound 22296] | 42% | 
13 | 22300 (eT*e[5mC]*eT*eG*eT*dG*dA*d[5mC]*dA*dT*dT*dA*dT*d[5mC]*dT*eT*eG*eA*eG*eA; antisense) [compound 22300] | 39% | 
14 | 22290 (eA*eG*e[5mC]*eT*e[5mC]*dA*d[5mC]*dT*d[5mC]*dA*dG*dG*d[5mC]*dT*dT*eT*eG*eG*eT*eT; antisense) [compound 22290] | 42% | 
15 | 22295 (eT*eG*eA*eT*e[5mC]*dT*dG*dA*dA*dG*dA*dT*dT*dG*dT*eG*eA*eA*eG*eT; antisense) [compound 22295] | 66% | % mRNA INHIBITION (human B7-2 mRNA, Table 12): 34%
16 | 22298 (eT*e[5mC]*eA*eG*eG*dT*dT*dG*dA*d[5mC]*dT*dG*dA*dA*dG*eT*eT*eA*eG*e[5mC]; antisense) [compound 22298] | 53% | % mRNA INHIBITION (human B7-2 mRNA, Table 12): 47%
17 | 22293 (e[5mC]*eA*eT*eA*eT*dA*d[5mC]*dT*dT*dG*dG*dA*dA*dT*dG*eA*eA*e[5mC]*eA*e[5mC]; antisense) [compound 22293] | 43% | 
18 | 22306 (eG*eG*e[5mC]*eT*eT*dT*dA*d[5mC]*dT*d[5mC]*dT*dT*dT*dA*dA*eT*eT*eA*eA*eA; antisense) [compound 22306] | 44% | 
